Measurements taken from US20110039762A1, “TARGETED ANTIMICROBIAL MOIETIES” (C3 JIAN, INC., priority 2009, published 2011).
Entries after “also recorded” stand apart in the source; their conditions may differ.

Columns and labels:
E. coli = test: Kill or inhibit growth/proliferation; morphology, biofilm and growth disruption (Tables 5, 6); type: cell-based, Escherichia coli; design: key: A: Peptide aggregates; B: Less hyphal formation; Clumps; Diffuse clumps and small polyps; F: Diffuse growth; H: Thin; I: Growth inhibition; Microcolony formation; Rippled; Small polyps; Thick; W: Halo formation on top, microlonies on bottom; note: test concentration or dose not given here
[1] = tested on: microorganisms (e.g., bacteria, yeasts, fungi); test: Targeting peptide binding to target microorganisms (Table 3); details: preferably 1x PBS; for Target(s): microorganism(s) the targeting peptide binds; for Target(s) (microorganisms bound by the targeting peptide): peptide binding in aqueous buffers varied by peptide solubility
microorganisms = test: Peptides having multiple activities (targeting/binding, antimicrobial, growth or phenotype altering)
Source text: In certain embodiments, peptides described herein can have multiple activities. Thus for example, a peptide can have both binding/targeting activity and antimicrobial activity. Such peptides can be used, e.g., in a chimeric construct, for any or all of these properties. Thus, for example, a peptide designated “B” in Table 8 can be used as a targeting peptide. If it is also designated G or M it can also be used for antimicrobial activity.

MRSA = test: Kill or inhibit growth/proliferation; morphology, biofilm and growth disruption (Tables 5, 6); type: cell-based, Methicillin-resistant Staphylococcus aureus; design: key: A: Peptide aggregates; B: Less hyphal formation; Clumps; Diffuse clumps and small polyps; F: Diffuse growth; H: Thin; I: Growth inhibition; Microcolony formation; Rippled; Small polyps; Thick; W: Halo formation on top, microlonies on bottom; note: test concentration or dose not given here
E. faecalis = test: as above; type: cell-based, Enterococcus faecalis; design: key: A: Peptide aggregates; B: Less hyphal formation; Clumps; Diffuse clumps and small polyps; F: Diffuse growth; H: Thin; I: Growth inhibition; Microcolony formation; Rippled; Small polyps; Thick; W: Halo formation on top, microlonies on bottom
S. epidermidis = test: as above; type: cell-based, Staphylococcus epidermidis; design: key: A: Peptide aggregates; B: Less hyphal formation; Clumps; Diffuse clumps and small polyps; F: Diffuse growth; H: Thin; I: Growth inhibition; Microcolony formation; Rippled; Small polyps; Thick; W: Halo formation on top, microlonies on bottom
S. pneumoniae = test: as above; type: cell-based, Streptococcus pneumoniae; design: key: A: Peptide aggregates; B: Less hyphal formation; Clumps; Diffuse clumps and small polyps; F: Diffuse growth; H: Thin; I: Growth inhibition; Microcolony formation; Rippled; Small polyps; Thick; W: Halo formation on top, microlonies on bottom; note: test concentration or dose not given here
[2] = binding in aqueous buffers depending on peptide solubility
[3] = peptide binding conducted in aqueous buffers varied by peptide solubility
Throughout, for Organism, effect (morphology, biofilm and growth disruption): test concentration or dose not given here.
Throughout, for Organism, effect: test concentration or dose not given here.

Substance | Organism, effect (E. coli) | Target(s) [1, 2] | Activities (microorganisms) | Organism, effect (MRSA) | Target(s) [1, 3] | Organism, effect (E. faecalis) | Organism, effect (S. epidermidis) | Organism, effect (S. pneumoniae) | Target(s) (microorganisms bound by the targeting peptide) [1] | Organism, effect (morphology, biofilm and growth disruption) (S. epidermidis) | Organism, effect (morphology, biofilm and growth disruption) (S. pneumoniae) | Organism, effect (morphology, biofilm and growth disruption) (E. faecalis) | Organism, effect (morphology, biofilm and growth disruption) (MRSA)
PF-344: peptide having multiple activities (DERLPEAKAIRNFNGSVMVLGR; Peptide with targeting and/or antimicrobial activity) | E. coli (A) | B. subtilis; also recorded: C. jejuni | G B |  |  |  |  |  |  |  |  |  | 
PF-362: peptide having multiple activities (chain 1 NIERILKEKVWMIRCVE; chain 2 NIERILKEKVWMIRCVE; Peptide with targeting and/or antimicrobial activity) | E. coli (C) | S. epidermidis; also recorded: E. coli; also recorded: P. aeruginosa; also recorded: C. albicans; also recorded: E. faecalis; also recorded: C. jejuni | G B | MRSA (C) |  |  |  |  |  |  |  |  | 
PF-385: peptide having multiple activities (chain 1 MIKKSILKIKYYVPVLISLTLILSA; chain 2 MIKKSILKIKYYVPVLISLTLILSA; Peptide with targeting and/or antimicrobial activity) | E. coli (A) | S. epidermidis | G B |  | E. coli; also recorded: P. aeruginosa; also recorded: C. albicans; also recorded: E. faecalis |  |  |  |  |  |  |  | 
PF-394: peptide having multiple activities (chain 1 VLKEECYQKN; chain 2 VLKEECYQKN; Peptide with targeting and/or antimicrobial activity) |  |  | G B | MRSA (C) | S. epidermidis and MRSA and C. jejuni | E. faecalis (A) |  |  |  |  |  |  | 
PF-407: peptide having multiple activities (KPKNKKEKTVISYEKLLSMY; Peptide with targeting and/or antimicrobial activity) |  |  | G B | MRSA (C) |  | E. faecalis (R) | S. epidermidis (M) | S. pneumoniae (R) |  |  |  |  | 
PF-429: peptide having multiple activities (AATLICVGSGIMSSL; Peptide with targeting and/or antimicrobial activity) |  |  | G B | MRSA (C) | S. epidermidis; also recorded: S. pneumoniae; also recorded: C. jeikeium | E. faecalis (C) | S. epidermidis (C) | S. pneumoniae (M) |  |  |  |  | 
PF-447: peptide having multiple activities (chain 1 IDKSRNKDQFSHIFGLYNICSG; chain 2 IDKSRNKDQFSHIFGLYNICSG; Peptide with targeting and/or antimicrobial activity) |  |  | G B | MRSA (C) | S. epidermidis; also recorded: M. luteus; also recorded: E. coli; also recorded: S. pneumoniae | E. faecalis (C) | S. epidermidis (C) | S. pneumoniae (C) |  |  |  |  | 
PF-450: peptide having multiple activities (chain 1 HRNLIILQRTIFI; chain 2 HRNLIILQRTIFI; Peptide with targeting and/or antimicrobial activity) |  |  | G B | MRSA (C) |  | E. faecalis (C) |  | S. pneumoniae (C) |  |  |  |  | 
PF-541 (RRNLNSPNIKTRKRALKIIKQHQRSK; Peptide with targeting and/or antimicrobial activity) | E. coli (H) |  |  |  |  |  |  | S. pneumoniae (H) |  |  |  |  | 
PF-544: peptide having multiple activities (chain 1 FGEKQMRSWWKVHWFHP; chain 2 FGEKQMRSWWKVHWFHP; Peptide with targeting and/or antimicrobial activity) |  |  | G B | MRSA (D) |  | E. faecalis (R) | S. epidermidis (D) | S. pneumoniae (M) |  |  |  |  | 
PF-613: peptide having multiple activities (ADEFAKL; Peptide with targeting and/or antimicrobial activity) |  |  | G B | MRSA (C) |  | E. faecalis (A) | S. epidermidis (R) |  | C. jeikeium |  |  |  | 
PF-616: peptide having multiple activities (IVFVVTKEKK; Peptide with targeting and/or antimicrobial activity) |  |  | G B |  |  | E. faecalis (A) | S. epidermidis (R) |  | C. jeikeium |  |  |  | 
PF-631: peptide having multiple activities (chain 1 LIIYFSKTGNTARATRQI; chain 2 LIIYFSKTGNTARATRQI; Peptide with targeting and/or antimicrobial activity) |  |  | G B |  |  | E. faecalis (H) |  | S. pneumoniae (I) | S. epidermidis and P. aeruginosa and C. albicans and MRSA and S. pneumoniae and E. faecalis and C. jeikeium |  |  |  | 
PF-638: peptide having multiple activities (chain 1 TFILPK; chain 2 TFILPK; Peptide with targeting and/or antimicrobial activity) |  |  | G B | MRSA (M) |  | E. faecalis (H) | S. epidermidis (R) | S. pneumoniae (I) | S. epidermidis and C. albicans and MRSA and C. jeikeium |  |  |  | 
PF-643 (chain 1 VRCRL; chain 2 VRCRL; Peptide with targeting and/or antimicrobial activity) |  |  |  | MRSA (C) |  | E. faecalis (R) |  | S. pneumoniae (R) | Mycobacteria spp |  |  |  | 
PF-664: peptide having multiple activities (chain 1 DQLCVEYPARVSTG; chain 2 DQLCVEYPARVSTG; Peptide with targeting and/or antimicrobial activity) |  |  | G B |  |  |  |  |  | M. smegmatis | S. epidermidis (M) | S. pneumoniae (M) | E. faecalis (R) | MRSA (R)
PF-667 (chain 1 PAHQRLRIDQRLVADRDMVQDYES; chain 2 PAHQRLRIDQRLVADRDMVQDYES; Peptide with targeting and/or antimicrobial activity) |  |  |  |  |  |  |  |  | Mycobacteria spp | S. epidermidis (R) | S. pneumoniae (R) | E. faecalis (R) | MRSA (R)
PF-677 (chain 1 TCRGAGMH; chain 2 TCRGAGMH; Peptide with targeting and/or antimicrobial activity) |  |  |  |  |  |  |  |  | Mycobacteria spp | S. epidermidis (R) | S. pneumoniae (D) | E. faecalis (R) | MRSA (D)
PF-690 (chain 1 MIPLAGDPVSSHRTVEFGVLGTYLVSGGSL; chain 2 MIPLAGDPVSSHRTVEFGVLGTYLVSGGSL; Peptide with targeting and/or antimicrobial activity) |  |  |  |  |  |  |  |  | Mycobacteria spp | S. epidermidis (R) | S. pneumoniae (M) | E. faecalis (R) | MRSA (R)
PF-695 (chain 1 ALSVMLGNIPLVVPNANQL; chain 2 ALSVMLGNIPLVVPNANQL; Peptide with targeting and/or antimicrobial activity) |  |  |  |  |  |  |  |  | Mycobacteria spp |  | S. pneumoniae (C) | E. faecalis (R) | MRSA (R)
